Experimental findings from ChEMBL document CHEMBL1201862, “PubChem BioAssay data set” (2004) are described below.

What all share (assay): NCI tumour cell line growth inhibition, 48 h
Experiment [1] relates to IGROV-1.
In experiment [2] the test system is SF-539.
Experiment [3] relates to SNB-78.
Experiment [4] has as its system SN12C.
The subject of experiment [5] is UO-31.
Experiment [6] has as its system OVCAR-5.
Experiment [7] relates to HCT-15.
The subject of experiment [8] is KM12.
The test system of experiment [9] is SF-295.
For experiment [10], the system named is SK-OV-3.
In experiment [11] the test system is LOX IMVI.
Experiment [12] relates to M19-MEL.
Experiment [13] concerns SK-MEL-28.
Experiment [14] deals with RXF 393.
For experiment [15], the system named is T47D.
Experiment [16] deals with SNB-75.
Experiment [17] concerns Hs-578T.
Experiment [18] has as its system MDA-MB-435.
Experiment [19] concerns HOP-92.
Experiment [20] deals with HOP-62.

SMILES strings stand for the structures.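 Five concentrations, 48 hours, 96-well plates. At the GI50, growth is halved.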 Activity calls are given as the source filed them. Rule as the data show it: active = GI50 up to about 1.1 µM and inactive = higher.

For `Cc1cc(Cl)ccc1NC(=O)CCCC(=O)C1CCCC1=O` (stereo not drawn), the GI50 in [1], in experiment [2], in [3], in experiment [4], in [5] and in [6] was > 100 µM (inactive) in each case. Moreover, the GI50 in experiment [7] was above 100 µM; in experiment [8] it was > 100 µM (inactive); in experiment [9], > 100 µM (inactive); in [10], > 100 µM (inactive); in experiment [11], > 100 µM (inactive); in [12], > 100 µM (inactive).

Regarding `CC[C@@H]1CC[C@@H]2[C@H](CC[C@]3(C)[C@@H](OC(C)=O)CC[C@@H]23)[C@H]1COC(C)=O`, the GI50 was 32.7 µM (inactive) in [1]; 30.8 µM (inactive) in [13]; 24.4 µM (inactive) in experiment [2]; 22.6 µM (inactive) in [14]; 22.9 µM (inactive) in [4]; 32.1 µM (inactive) in experiment [15]. Further, the GI50 was > 100 µM (inactive) in [5]; 40.6 µM (inactive) in experiment [16]; 20.1 µM (inactive) in experiment [6]; 25.1 µM (inactive) in experiment [17]; 23.9 µM in [7]; 24.3 µM (inactive) in experiment [8]. The GI50 is 22.5 µM (inactive) in experiment [18]; 25.2 µM (inactive) in experiment [9]; 29 µM (inactive) in experiment [19]; 35.2 µM (inactive) in experiment [10]; 30.4 µM (inactive) in experiment [20]; 17.4 µM (inactive) in experiment [11].

Consider `COC(=O)CNCC1OC2OC(C)(C)OC2C1N=[N+]=[N-]` (stereo not drawn), for which the GI50 in [1], in [13], in experiment [2], in [14], in experiment [4] and in experiment [15] was > 100 µM (inactive) in each case. The GI50 in experiment [5] was > 100 µM (inactive); in [16], > 100 µM (inactive); in [6] it was > 100 µM (inactive); in experiment [17], > 100 µM (inactive); in experiment [7] it was above 100 µM; in [8], > 100 µM (inactive). The GI50 in experiment [18], in [9], in experiment [19], in experiment [10], in [20] and in experiment [11] was > 100 µM (inactive) in each case.

Take `CN(C)/N=C1\CC(c2ccccc2)C(C#N)(C#N)C1(C#N)C#N` (stereo not drawn): the GI50 is 21.4 µM (inactive) in experiment [1]; 19.2 µM (inactive) in experiment [13]; 41.4 µM (inactive) in experiment [2]; 26.5 µM (inactive) in experiment [14]; 20.8 µM (inactive) in experiment [4]; 21 µM (inactive) in experiment [15]. In addition, the GI50 in [5] is 18.6 µM (inactive); in experiment [16] it was 15.7 µM (inactive); in experiment [6] it was 25.6 µM (inactive); in experiment [17], 29.7 µM (inactive); in [7], 15.4 µM; in experiment [8] it was 49.3 µM (inactive). Further, the GI50 is 27.6 µM (inactive) in [18]; 23.7 µM (inactive) in experiment [9]; 14.8 µM (inactive) in experiment [19]; 50.1 µM (inactive) in experiment [10]; 24.4 µM (inactive) in [20]; 27.5 µM (inactive) in experiment [11].

Turning to `Oc1cc(-c2ccc(Oc3ccccc3)cc2)nc2cc3c(cc12)OCO3`, the GI50 was > 100 µM (inactive) in experiment [1]; > 100 µM (inactive) in experiment [13]; > 100 µM (inactive) in experiment [2]; 57.5 µM (inactive) in experiment [14]; > 100 µM (inactive) in experiment [4]; > 100 µM (inactive) in experiment [5]. The GI50 is 27.2 µM (inactive) in [16]; above 100 µM in experiment [7]; > 100 µM (inactive) in experiment [9]; > 100 µM (inactive) in experiment [20]; > 100 µM (inactive) in experiment [11]; > 100 µM (inactive) in experiment [12].

In the case of `CCOC(=O)C(Cl)(NC(=O)OCc1ccccc1)C(F)(F)F` (stereo not drawn), the GI50 in experiment [1], in [13], in experiment [2], in experiment [14], in experiment [4] and in [15] was > 100 µM (inactive) throughout. Further, the GI50 in [5] is > 100 µM (inactive); in [16], > 100 µM (inactive); in experiment [6], > 100 µM (inactive); in experiment [17], > 100 µM (inactive); in experiment [7], above 100 µM; in [8], > 100 µM (inactive). The GI50 in experiment [18], in experiment [9], in [19], in experiment [10], in experiment [20] and in [11] was > 100 µM (inactive) each time.

Regarding `CCOC(=O)[N-]c1ccc(S(=O)(=O)[O+](C)CCl)cc1.CCOC(=O)[N-]c1ccc(S(=O)(=O)[O+](C)CCl)cc1.NC(=O)N=O.NC(=O)OCCCl`, the GI50 in [1], in experiment [13], in experiment [2], in experiment [3], in experiment [4] and in experiment [5] was > 100 µM (inactive) each time. Further, the GI50 was > 100 µM (inactive) in experiment [6]; above 100 µM in experiment [7]; > 100 µM (inactive) in experiment [8]; > 100 µM (inactive) in [9]; > 100 µM (inactive) in experiment [19]; > 100 µM (inactive) in experiment [10]. Besides, the GI50 in experiment [20], in [11] and in [12] was > 100 µM (inactive) each time.

On to `COC(=O)C(CC(=O)c1cc2c(cc1I)OCO2)Cc1cc(OC)c(OC)c(OC)c1I` (stereo not drawn), for which the GI50 in experiment [1] was > 100 µM (inactive); in [13] it was > 100 µM (inactive); in experiment [2], > 100 µM (inactive); in experiment [14] it was 73.5 µM (inactive); in experiment [4], > 100 µM (inactive); in [6], 2.88 µM (inactive). In addition, the GI50 in [7] is above 100 µM; in experiment [8], 71.6 µM (inactive); in experiment [9], 16.8 µM (inactive); in experiment [19], 14.3 µM (inactive); in [10] it was > 100 µM (inactive); in experiment [20] it was > 100 µM (inactive). Further, the GI50 in [11] and in experiment [12] was > 100 µM (inactive) each time.

`O=C(O)CCS/C(=C\C(SCCC(=O)O)c1ccc(Cl)cc1)c1ccc(Cl)cc1` (stereo not drawn): the GI50 is 38.8 µM (inactive) in experiment [1]; 45.1 µM (inactive) in experiment [13]; 37.2 µM (inactive) in experiment [2]; 39.7 µM (inactive) in [14]; 50 µM (inactive) in [4]; 41.9 µM (inactive) in experiment [15]. The GI50 in experiment [5] was 78 µM (inactive); in experiment [16], 78.3 µM (inactive); in experiment [6] it was > 100 µM (inactive); in [17], 63.5 µM (inactive); in [7], 30.8 µM; in experiment [8], 25.6 µM (inactive). For the same compound, the GI50 in [18] is 36.4 µM (inactive); in [9], 33.4 µM (inactive); in experiment [19], 25.8 µM (inactive); in experiment [10], > 100 µM (inactive); in experiment [20], 37.5 µM (inactive); in experiment [11], 25.5 µM (inactive).
